Strand notation (5' to 3'): a small letter for the sugar, then the base; units joined by * are phosphorothioate-linked, units joined directly phosphodiester-linked; [ ] holds rarer units or linkages, { } end groups; capitals alone tell only the bases. e = 2'-O-(2-methoxyethyl) (MOE); [5mC] = 5-methylcytosine; d = 2'-deoxy (DNA)
What was measured:
[1] = test system: DGAT2 mRNA; assay: Antisense inhibition of DGAT2 in A10 cells, 75 nM (Table 81); format: cell-based, rat; conditions: approximately 24 hours
Description: Short antisense compounds targeted to a DGAT2 nucleic acid were tested for their effects on DGAT2 mRNA in vitro. Cultured A10 cells in a 96-well plate were treated with 75 nM of short antisense compound. After a treatment period of approximately 24 hours, RNA was isolated from the cells and DGAT2 mRNA levels were measured by quantitative real-time PCR, as described herein. DGAT2 mRNA levels were adjusted according to total RNA content as measured by RIBOGREEN®. Results are presented as percent inhibition of DGAT2, relative to untreated control cells in Table 81.

[2] = test system: rat DGAT2 mRNA; assay: Dose-dependent inhibition of DGAT2 in A10 cells (Tables 82, 83); format: cell-based
Description: Additional short antisense compounds targeted to DGAT2 mRNA were tested in vitro in a dose-response experiment. A10 cells were prepared as described above and treated with 6.25, 12.5, 25.0, 50.0, 100.0, and 200.0 nM short antisense compounds to determine if DGAT2 inhibition occurs in a dose-dependent manner. […] Results are presented as percent inhibition, relative to untreated control cells.
Additional short antisense compounds targeted to DGAT2 mRNA were tested in vitro. A10 cells were prepared as described above and treated with 0.62, 1.85, 5.56, 16.67, 50.0, and 150.0 nM short antisense compounds to determine if DGAT2 inhibition occurs in a dose-dependent manner. DGAT2 mRNA was measured using quantitative real-time PCR, as described herein. […] Results are presented as percent inhibition of rat DGAT2, relative to untreated control cells.

| Substance | % Control [1] | percent inhibition of rat DGAT2 ([2]; 0.62 nM (Table 83)) | percent inhibition of rat DGAT2 ([2]; 1.85 nM (Table 83)) | percent inhibition of rat DGAT2 ([2]; 5.56 nM (Table 83)) | percent inhibition of rat DGAT2 ([2]; 16.67 nM (Table 83)) | percent inhibition of rat DGAT2 ([2]; 50 nM (Table 83)) | percent inhibition of rat DGAT2 ([2]; 150 nM (Table 83)) |
| --- | --- | --- | --- | --- | --- | --- | --- |
| 372491 (antisense eA*e[5mC]*eA*dT*dG*dA*dG*dG*dA*dT*dG*dA*d[5mC]*eA*e[5mC]*eT) [compound 372491] | 80 % Control |  |  |  |  |  |  |
| 372500 (antisense eG*eT*eG*dT*dG*dT*d[5mC]*dT*dT*d[5mC]*dA*d[5mC]*d[5mC]*eA*eG*e[5mC]) [compound 372500] | 16 % Control | 0% | 0% | 0% | 18% | 64% | 88% |
| 372501 (antisense eT*eT*eG*dT*dG*dT*dG*dT*d[5mC]*dT*dT*d[5mC]*dA*e[5mC]*e[5mC]*eA) [compound 372501] | 28 % Control | 1% | 5% | 10% | 11% | 25% | 68% |
| 372503 (antisense eG*e[5mC]*eA*dG*dG*dT*dT*dG*dT*dG*dT*dG*dT*e[5mC]*eT*eT) [compound 372503] | 35 % Control | 7% | 10% | 4% | 25% | 54% | 80% |

Source: patent publication US8372967B2, “Compounds and methods for modulating expression of GCCR” (Isis Pharmaceuticals, Inc., priority 2006, dated 2013)
